Source: patent US20100172988A1, “SUSTAINED RELEASE PREPARATION AND METHOD FOR PRODUCTION THEREOF” (KISSEI PHARMACEUTICAL CO., LTD., priority 2006, published 2010)

How the values were obtained:
[1] = pH dependence of the dissolution rate of compound (I); type: physicochemical; conditions: compared with approximately pH 1.2 (gastric juice) and approximately pH 6.8 (intestinal juice)
[2] = Decomposition of compound (I) on adding a basic ingredient; type: physicochemical; conditions: basic ingredient added to compound (I)

CCOC(=O)COc1cc(C)c(CCN[C@@H](C)[C@H](O)c2ccc(O)cc2)cc1C.Cl [compound (I), Ethyl (−)-2-[4-[2-[[(1S,2R)-2-hydroxy-2-(4-hydroxy-phenyl)-1-methylethyl]amino]ethyl]-2,5-dimethylphenoxy]-acetate hydrochloride]
pH of the highest dissolution rate of the active ingredient [1]: highest dissolution rate at approximately pH 4
decomposition of compound (I) [2]: decomposition of compound (I) itself was accelerated
